Results on one compound are retold here after patent publication US8486431B2 (priority 2005, dated 2013).

The target of test [1] is T1, glucose-6-phosphate dehydrogenase (G6PD) (Saccharomyces cerevisiae, UniProt P11412).
T1 construct: purchased Sigma Corp
Briefly: Protein denaturation experiment: enzyme activity of G6PD reacted with chlorine dioxide. It counts as biochemical, yeast. The conditions noted are these: 0.07 ppm chlorine dioxide in PBS pH7; 25° C., 2 minutes; compared with 0 ppm. The method, then: The enzyme activity of G6PD was determined by observing absorption of NADPH by a spectral photometer, with using NADP and glucose-phosphoric acid as the substrate. Specific reaction conditions were set according to the manufacturer's (Sigma Corp.) instructions.
The concentration values on the horizontal axis are shown as being converted into the unit of ppm. The “specific activity” on the vertical axis represents enzyme activity (unit/mg) per 1 mg of protein

Test [2] concerns Type A influenza strain A/PR8 (H1N1). Also noted: species or system mice. The conditions noted are these: mouse, in vivo.
Test [3] shares this test system. As to conditions: mouse, in vivo.

T1 sequence (P11412 whole entry): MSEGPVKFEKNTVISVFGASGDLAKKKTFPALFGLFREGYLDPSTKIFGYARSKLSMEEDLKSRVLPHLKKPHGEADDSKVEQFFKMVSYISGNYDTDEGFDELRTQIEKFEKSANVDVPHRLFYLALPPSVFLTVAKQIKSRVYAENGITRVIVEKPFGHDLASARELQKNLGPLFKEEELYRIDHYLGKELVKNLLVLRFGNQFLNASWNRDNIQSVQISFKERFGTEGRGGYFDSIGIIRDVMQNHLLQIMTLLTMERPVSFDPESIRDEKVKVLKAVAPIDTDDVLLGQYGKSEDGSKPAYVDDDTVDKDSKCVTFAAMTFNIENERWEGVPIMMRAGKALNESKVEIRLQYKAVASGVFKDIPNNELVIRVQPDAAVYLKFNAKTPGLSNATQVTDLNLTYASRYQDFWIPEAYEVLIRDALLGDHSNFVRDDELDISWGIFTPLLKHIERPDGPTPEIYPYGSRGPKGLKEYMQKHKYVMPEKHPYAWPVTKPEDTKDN

`[O][Cl+][O-]` [chlorine dioxide]: in test [1], the “reduction in the enzyme activity of G6PD” value is given as “about 60%”. Besides, in test [2], the “Total virus amount in lung tissues on Day 3 after 10 LD50 virus exposure (TClD50 values)” value is given as 10^3 TClD50, the “lung virus amount relative to that of the control group (0 ppm group)” value is listed as 5% and the “total virus amounts in lung after delayed administration” value is “smaller than expected”. Further, in test [3], the “chlorine dioxide concentration required for preventing influenza virus infection” value was 0.0001 ppm; the “chlorine dioxide gas concentration effective for influenza onset inhibition” value is reported as “at least 0.05 ppm”; the “deaths compared with 0 ppm group” value is “deaths occurred with delay”; the “number of onsets of influenza and virus amount in the lung versus control group (0 ppm)” value is on record as “no significant difference was found”.
